Data: patent publication US20120276545A1, “METHOD FOR USING DIVISION ARRESTED CELLS IN SCREENING ASSAYS” (LIFE TECHNOLOGIES CORPORATION, priority 2002, published 2012)

What was measured:
5HT2c = biological target: T1, 5HT2c (Rattus norvegicus, UniProt P08909); test: Ca2+ mobilization by FACS (Indo-1) in NIH3T3-POP cells expressing 5HT2c; assay type: cell-based; details: Mesulergine (10 μM) pretreated division arrested cells, 10 μM 5HT
T1 sequence (P08909 33-460): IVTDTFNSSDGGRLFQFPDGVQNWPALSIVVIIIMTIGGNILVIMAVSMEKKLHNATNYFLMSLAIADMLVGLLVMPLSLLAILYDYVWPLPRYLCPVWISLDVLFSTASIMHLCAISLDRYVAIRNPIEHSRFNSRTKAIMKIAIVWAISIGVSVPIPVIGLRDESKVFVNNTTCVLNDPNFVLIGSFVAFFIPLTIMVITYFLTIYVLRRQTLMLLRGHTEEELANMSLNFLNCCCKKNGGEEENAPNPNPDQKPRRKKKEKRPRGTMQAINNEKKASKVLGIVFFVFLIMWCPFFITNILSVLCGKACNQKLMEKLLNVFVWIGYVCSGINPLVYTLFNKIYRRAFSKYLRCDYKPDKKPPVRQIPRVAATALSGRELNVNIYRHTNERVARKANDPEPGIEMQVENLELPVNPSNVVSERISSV
Source text: (§1) In order to measure and to analyze Ca^2+ mobilization, a commercially available cell sorter was used. Excitation was set at 360 nm, and emissions were set at both 400 (+/−15 nm) and 500 (+/−20)nm. The emissions were monitored simultaneously, and the emission ratio at 400 nm/500 nm was used to report the intracellular rise of Ca^2+ concentration. Untreated cells were used to set a baseline ratio.

parental NIH3T3 cells = test: Ca2+ mobilization control in untransfected parental NIH3T3 cells; assay type: cell-based; details: parental NIH3T3 cells not transfected; data not shown
Source text: as §1

| SMILES | cells responding to serotonin in Ca++ mobilization (5HT2c) [%] | fluorescence change when treated with serotonin (parental NIH3T3 cells) |
| --- | --- | --- |
| CN1C[C@@H](NS(=O)(=O)N(C)C)C[C@@H]2c3cccc4c3c(cn4C)C[C@H]21 [Mesulergine] | 0.1 | – |
| NCCc1c[nH]c2ccc(O)cc12 [serotonin] | – | no fluorescence change |
